Data on one compound can be found in patent US9879036B2, “Mitochondrial aldehyde dehydrogenase-2 binding compounds and methods of use thereof” (Aviv Therapeutics, Inc., priority 2014, dated 2018).

The structures appear in SMILES notation.

This test has as its target T1, ALDH2*1/*1 (Homo sapiens, UniProt P05091).
T1 construct: His-tag (N); made in house; host or cells: E. coli BL21 (pTrcHis vector)
T1 sequence (P05091 18-517): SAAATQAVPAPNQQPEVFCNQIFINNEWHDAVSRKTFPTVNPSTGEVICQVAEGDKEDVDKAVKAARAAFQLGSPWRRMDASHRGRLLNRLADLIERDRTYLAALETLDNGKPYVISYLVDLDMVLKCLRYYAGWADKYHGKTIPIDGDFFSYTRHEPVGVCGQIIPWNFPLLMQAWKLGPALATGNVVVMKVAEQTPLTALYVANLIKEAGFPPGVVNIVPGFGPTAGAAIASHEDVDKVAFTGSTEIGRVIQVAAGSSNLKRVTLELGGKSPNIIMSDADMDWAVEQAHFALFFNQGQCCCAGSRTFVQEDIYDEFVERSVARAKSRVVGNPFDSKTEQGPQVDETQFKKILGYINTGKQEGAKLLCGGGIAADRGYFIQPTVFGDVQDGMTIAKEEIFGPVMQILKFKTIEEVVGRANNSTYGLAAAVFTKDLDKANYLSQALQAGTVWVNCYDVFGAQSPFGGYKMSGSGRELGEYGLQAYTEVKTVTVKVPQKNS
Briefly: ALDH2 enzymatic activity, NADH accumulation at 340 nm, acetaldehyde substrate, wild type. It counts as biochemical. As to conditions: relative to baseline enzymatic activity (100%). A digest of the protocol: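 N-terminally His-tagged recombinant human ALDH2 (wild type, or E487K co-expressed with wild type for heterotetramers) was made in E. coli and Ni-purified. Activity was followed as NADH formation at 340 nm with acetaldehyde and NAD+, with compound at 20 to 0.16 μM, expressed as % of baseline activity.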

In the case of `COc1ccc(CNC(=O)c2cc(-c3ncccc3CO)ccc2OCC2CC2)cc1F` [AC6], the activity at 2.5 µM (2.5 μM compound) worked out at 208%. The activity at 5 µM (5 μM compound) was determined as 238%. The activity at 10 µM (10 μM compound) stood at 293%. The activity at 20 µM (20 μM compound) turned out to be 299%.
